Assay results as given in US12655162B2, “Highly efficient myeloperoxidase activatable imaging agents” (priority 2019, dated 2026).

Experiments:
[1] = transmetallation with Zn^2+, cited from earlier work
MPO [2] = assay: MR imaging of complete Freund's adjuvant (CFA) subcutaneous inflammation; assay type: in vivo, mouse; conditions: wild-type mice
Protocol: The efficacy of mcMPO-Gd was validated in a well-established mouse model of subcutaneous inflammation induced by complete Freund's adjuvant (CFA). Six to ten weeks old female C57BL/6J mice (Jackson Laboratories, Bar Harbor, ME) and MPO-deficient mice were used for this experiment. The mice were injected subcutaneously with a 1:1 (v:v) emulsion of CFA:PBS (40 μL of total volume) on one forearm under isoflurane anesthesia. PBS (40 μL) was injected on the other side as control. After 24 h, gadolinium agents (mcMPO-Gd in PBS containing 10% DMSO and 20% N,N-dimethylacetamide, or MPO-Gd in PBS containing 5% DMSO, or Dotarem in PBS) were administered through tail vein injection and the mice imaged at 0 min, 15 min, 30 min, 45 min, and 60 min using serial T1-weighted imaging (TR:900 ms, TE: 13.59 ms, 0.156×0.156×0.5 mm Voxels) with chemical fat suppression and respiratory gating on a 4.7 T small animal MR scanner (Bruker, Cambridge, MA) with a 3-cm quadrature volume coil (Rapid MR International, Germany). Regions of interest (ROI) were drawn manually by a person blinded to the identity of the mice or imaging agent used, and the contrast-to-noise ratios (CNRs) were calculated as CNR=(SIlesion−SIskeletal muscle)/SDbackground.
24 h after injection of a CFA emulsion into the shoulder of mice, contrast agents (0.3 mol/kg) were injected via the tail vein and the animals imaged.

MPO [3] = target: T1, MPO (Mus musculus, UniProt P11247); assay: MR imaging of tandem stenosis (TS) model of atherosclerotic plaque instability, intervention with AZM198; assay type: in vivo; conditions: TS Apoe^−/− mice, 7 weeks after TS surgery, 0.3 mmol/kg i.v.
T1 construct: from tissue; host or cells: carotid / brachiocephalic plaque of living male Apoe-/- mice
T1 sequence (P11247 139-718): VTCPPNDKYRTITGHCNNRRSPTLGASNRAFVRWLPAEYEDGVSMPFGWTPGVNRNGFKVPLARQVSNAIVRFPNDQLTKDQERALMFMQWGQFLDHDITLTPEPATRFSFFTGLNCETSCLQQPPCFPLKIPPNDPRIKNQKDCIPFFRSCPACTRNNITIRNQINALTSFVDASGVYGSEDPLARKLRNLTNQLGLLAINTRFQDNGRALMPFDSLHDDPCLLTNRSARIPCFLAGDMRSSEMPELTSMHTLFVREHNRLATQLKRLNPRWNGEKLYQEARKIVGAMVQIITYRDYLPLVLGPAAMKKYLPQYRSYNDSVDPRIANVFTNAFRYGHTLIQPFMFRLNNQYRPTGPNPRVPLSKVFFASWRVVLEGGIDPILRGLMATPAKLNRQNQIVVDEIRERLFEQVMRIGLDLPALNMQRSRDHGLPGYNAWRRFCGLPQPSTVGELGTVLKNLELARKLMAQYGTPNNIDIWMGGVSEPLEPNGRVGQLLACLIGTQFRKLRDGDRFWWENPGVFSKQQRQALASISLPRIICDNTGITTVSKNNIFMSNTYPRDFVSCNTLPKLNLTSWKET
Excerpt: Six weeks after commencement of WD, tandem stenosis (TS) was introduced into the mice as previously described (see e.g., Rashid et al, Eur. Heart J., 2018, 39:3301-3310). Male Apoe^-/- mice were anesthetized with 4% isoflurane. The right common carotid artery was dissected from circumferential connective tissues. Two stenoses were placed by tying a 6-0 blue-braided polyester fiber suture (TICRON 0.7 Metric) around the exposed artery, with the distal stenosis 1 mm from the carotid artery bifurcation and the proximal stenosis 3 mm from the distal stenosis. Blood flow was measured before and after the addition of each ligature using a perivascular flow module (Transonic, TS420) and a 0.7 mm perivascular flow probe (Transonic MA0.7PSB). Flow for each ligature in the TS was defined as 70% of baseline flow after addition of the distal ligature and 20% of baseline flow after addition of the proximal ligature. […] The contrast-to-noise ratio (CNR) was calculated as follows: CNR=([…] muscle)/SDbackground. The mean CNRs of three consecutive slices in plaque with unstable phenotype and corresponding segments of the left carotid artery (plaque-free), in addition to 1-2 consecutive slices in the brachiocephalic trunk (stable plaque), were calculated. Segmental enhancement attributable to MPO was assessed by calculating the ΔCNR=CNRpost-contrast-CNRpre-contrast. […]

[4] = target: bovine serum albumin (BSA) (Bos taurus, UniProt P02769); assay: Binding to proteins (BSA) after activation by MPO, T1 relaxation; assay type: biochemical; conditions: for T1 (Before activation, ms): 0.5 mM agent, PBS; for T1 (Before activation, ms) / T1 (After activation, ms) / T1 change(%): MPO/GOX, 40° C.; for T1 (After activation, ms) / T1 change(%): 1 h
Protocol: The capability of mcMPO-Gd and MPO-Gd to bind to bovine serum albumin (BSA) after activation by MPO was evaluated. […] The relaxation rates were measured as described above.

[5] = 0.47 T, PBS, 40° C.; determined previously (Querol et al); cited from earlier work
[6] = Kinetic stability: transmetallation with Zn^2+ (relaxation rate R1 over 95 h); assay type: physicochemical; conditions: 1 mM agent, ZnCl2 2.5 mM, PBS, 40° C., 0.47 T
Protocol: Am. Chem. Soc., 2010, 132:168-177; and Laurent et al, Invest. Radiol., 2001, 36:115-122). mcMPO-Gd or MPO-Gd (1 mM) was incubated with ZnCl2 (2.5 mM) in PBS at 40° C., and the relaxation rates (R1) were measured for 95 h using an inversion-recovery pulse sequence on the Bruker Minispec (Bruker Analytics, North Billerica, MA) at 0.47 T (20 MHz) at 40° C. The stability of mcMPO-Gd was evaluated by kinetic index (R1(t)/R1(t=0)=0.8) and thermodynamic index (R1(72 h)/R1(t=0)) and compared with MPO-Gd (see e.g., Rodriguez et al, J. Am. Chem. […] Org. Chem., 2006, 71:3332-3334). […] T1 relaxation time was measured as previously described at different time points (see e.g., Rodriguez et al, J. Am. Chem. Soc., 2010, 132:168-177). […] Radiol., 2001, 36:115-122) indicating high stability of mcMPO-Gd, consistent with a previous report on the kinetic stability of the macrocyclic GBCAs (see e.g., Laurent et al, Contrast Media Mol. Imaging 2006, 1:128-137).

bovine serum albumin (BSA), sequence (P02769 25-607): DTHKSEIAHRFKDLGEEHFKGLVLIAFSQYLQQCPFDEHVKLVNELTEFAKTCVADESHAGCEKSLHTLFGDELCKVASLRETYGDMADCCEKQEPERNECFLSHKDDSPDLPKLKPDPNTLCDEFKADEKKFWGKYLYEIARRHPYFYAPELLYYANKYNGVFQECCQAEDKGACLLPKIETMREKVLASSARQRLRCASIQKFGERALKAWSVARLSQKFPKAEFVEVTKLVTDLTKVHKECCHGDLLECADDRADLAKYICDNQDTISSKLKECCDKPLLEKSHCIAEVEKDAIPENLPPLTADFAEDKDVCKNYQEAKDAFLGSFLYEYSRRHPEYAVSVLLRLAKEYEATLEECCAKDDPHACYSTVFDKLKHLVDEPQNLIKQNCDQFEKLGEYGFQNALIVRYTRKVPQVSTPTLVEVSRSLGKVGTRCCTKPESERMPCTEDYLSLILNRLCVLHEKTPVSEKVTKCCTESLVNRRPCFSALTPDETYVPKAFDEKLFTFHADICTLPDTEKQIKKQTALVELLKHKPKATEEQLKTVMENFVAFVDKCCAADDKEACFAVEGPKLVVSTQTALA

Question: With CNC(=O)CN(CCN(CCN(CC(=O)[O-])CC(=O)NC)CC(=O)[O-])CC(=O)[O-].[Gd+3] [BMA—DTPA—Gd, BMA-Gd-DTPA] as the molecule, how does the “R1(t=72 h)/R1(t=0) (long-term index)” value ([1]; literature value (Laurent et al)) read?
Answer: Its value is 0.09.

Question: And the “t (min) for R1(t)/R1(t=0) = 0.8” value ([1]; literature value)?
Answer: Its value is 50 to 60 min.

Question: With CNC[C@H](O)[C@@H](O)[C@H](O)[C@H](O)CO.O=C([O-])CN1CCN(CC(=O)[O-])CCN(CC(=O)O)CCN(CC(=O)[O-])CC1.[Gd+3] [Dotarem, gadoterate meglumine] as the molecule, how does the “contrast-to-noise ratio (CNR) over time” value (MPO [2]; i.v., over 60 min) read?
Answer: Its value is “decreased rapidly over time”.

Question: Which “ΔCNR in unstable plaque” value (MPO [3]) does the source give for O=C([O-])CN(CCN(CC(=O)[O-])CC(=O)NCCc1c[nH]c2ccc(O)cc12)CCN(CC(=O)[O-])CC(=O)NCCc1c[nH]c2ccc(O)cc12.[Gd+3] [MPO-Gd, bis-5-HT-Gd-DTPA] here?
Answer: Its value is 15.0.

Question: What about the “improvement in T1 shortening in the presence of BSA” value ([4]; BSA vs no BSA, after MPO activation) of the same molecule?
Answer: The value was 22%.

Question: What about the “T1 (Before activation, ms)” value ([4]; BSA) of the same molecule?
Answer: Its value is 381 ms.

Question: What about the “T1 (After activation, ms)” value ([4]; BSA) of the same molecule?
Answer: The value was 246 ms.

Question: And the “T1 change(%)” value ([4]; BSA)?
Answer: Its value is 54%.

Question: What about the “T1 (Before activation, ms)” value ([4]; No BSA) of the same molecule?
Answer: Its value is 375 ms.

Question: And the “T1 (After activation, ms)” value ([4]; No BSA)?
Answer: Its value is 283 ms.

Question: And the “T1 change(%)” value ([4]; No BSA)?
Answer: Its value is 32%.

Question: And the “increase in activation ratio (AR=CNR(post-contrast)/CNR(first post-contrast))” value (MPO [2]; 60 min)?
Answer: Its value is 2 fold.

Question: And the “relaxivity (r1)” value [5]?
Answer: The value was 4.3 mM⁻¹ s⁻¹.

Question: And the “R1(t=72 h)/R1(t=0) (long-term / thermodynamic index)” value [6]?
Answer: Its value is 0.76.

Question: And the “t (min) for R1(t)/R1(t=0) = 0.8 (kinetic / ratio index)” value [6]?
Answer: The value was 2866 min.
